Experiment [1] addresses T1, Melanin-concentrating hormone receptor 1 (Homo sapiens, UniProt Q99705). Nature of the experiment: Binding affinity to MCHR1 receptor by cell-based assay.
A short description of experiment [2]: Displacement of [Phe13, [125I]Tyr19]-MCH from human MCHR1 receptor E4Q/A5T mutant expressed in HEK 293 cell membranes by scintillation counter. The conditions noted are these: hek293.
Experiment [3] addresses T1, Melanin-concentrating hormone receptor 1. Nature of the experiment: Displacement of [125I]-MCH from human MCHR1 receptor expressed in CHO-K1 cell membranes after 2 hrs by scintillation proximity assay.
In experiment [4] the test system is Rattus norvegicus. Nature of the experiment: Antiobesity activity in obese rat assessed as reduction in body weight at 3 mg/kg, po measured on day 29. The experiment is classed as functional. Further details: scale not given: the % may be the effect or the level left.
The test system of experiment [5] is Rattus norvegicus. Nature of the experiment: Antiobesity activity in obese rat assessed as reduction in body weight at 30 mg/kg, po measured on day 29. It is filed as functional. Further details: scale not given: the % may be the effect or the level left.

T1 sequence (Q99705 whole entry): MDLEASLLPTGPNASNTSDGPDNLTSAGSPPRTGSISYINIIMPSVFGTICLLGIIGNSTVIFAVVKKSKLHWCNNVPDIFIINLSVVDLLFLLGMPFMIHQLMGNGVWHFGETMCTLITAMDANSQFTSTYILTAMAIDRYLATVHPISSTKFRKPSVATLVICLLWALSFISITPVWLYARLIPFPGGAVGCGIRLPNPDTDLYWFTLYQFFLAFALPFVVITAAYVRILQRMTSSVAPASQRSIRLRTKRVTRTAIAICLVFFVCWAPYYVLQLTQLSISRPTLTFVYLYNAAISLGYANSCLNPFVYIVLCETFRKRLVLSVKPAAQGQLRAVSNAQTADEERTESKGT

In experiment [1], `Cc1ccc(/C=C/C(=O)Nc2ccc3nc(N4CCN(C)CC4)cc(C)c3c2)cc1` had an Activity of 50 nM.

Usually Ki stands for the equilibrium dissociation constant of an inhibitor or competing ligand from its target. Regarding `COc1cc(-n2cnc3cc(-c4ccc(Cl)cc4)sc3c2=O)ccc1OC[C@H](O)C1CC1`, in experiment [2], the Ki was determined as 18 nM.

`COc1ccc(/C=C/C(=O)Nc2ccc3nc(N4CCOCC4)cc(C)c3c2)cc1` showed an Activity in experiment [1] of 50 nM.

As usually defined, the IC50 is the concentration that gives 50% inhibition. The molecule `CN(C)CC1CCc2cc(NC(=O)Nc3ccc(Oc4ccccc4)cc3)ccc2C1` (centres undefined) had an IC50 in experiment [3] of 10 nM.

In the case of `COc1cc(-n2cnc3cc(-c4ccc(Cl)cc4)sc3c2=O)ccc1OC[C@H](OP(=O)(O)O)C1CC1` [BMS-830216], the Activity in experiment [4] and in experiment [5] was 7.8% each time.

In experiment [2], `COc1cc(-n2cnc3cc(-c4ccc(Cl)cc4)sc3c2=O)ccc1OCC1(O)CC(F)(F)C1` gave a Ki of 10 nM.

In the case of `COc1cc(-n2cnc3cc(-c4ccc(Cl)cc4)sc3c2=O)ccc1OCC1(OC(=O)CN)CC(F)(F)C1`, the Activity in experiment [4] and in experiment [5] was 10.2% each time.

The values above are taken from ChEMBL document CHEMBL2146433, “Melanin concentrating hormone receptor 1 (MCHR1) antagonists-Still a viable approach for obesity treatment?” (Bioorg Med Chem Lett, 2012).
